These results are taken from article PMC11121672, “Screening of Small-Molecule Libraries Using SARS-CoV-2-Derived Sequences Identifies Novel Furin Inhibitors” (International Journal of Molecular Sciences, 2024).

In the first test the target is T1, Furin (Homo sapiens, UniProt P09958).
T1 construct: soluble Furin (sFur), truncated before its transmembrane domain (BTMD)
T1 sequence (P09958 108-715): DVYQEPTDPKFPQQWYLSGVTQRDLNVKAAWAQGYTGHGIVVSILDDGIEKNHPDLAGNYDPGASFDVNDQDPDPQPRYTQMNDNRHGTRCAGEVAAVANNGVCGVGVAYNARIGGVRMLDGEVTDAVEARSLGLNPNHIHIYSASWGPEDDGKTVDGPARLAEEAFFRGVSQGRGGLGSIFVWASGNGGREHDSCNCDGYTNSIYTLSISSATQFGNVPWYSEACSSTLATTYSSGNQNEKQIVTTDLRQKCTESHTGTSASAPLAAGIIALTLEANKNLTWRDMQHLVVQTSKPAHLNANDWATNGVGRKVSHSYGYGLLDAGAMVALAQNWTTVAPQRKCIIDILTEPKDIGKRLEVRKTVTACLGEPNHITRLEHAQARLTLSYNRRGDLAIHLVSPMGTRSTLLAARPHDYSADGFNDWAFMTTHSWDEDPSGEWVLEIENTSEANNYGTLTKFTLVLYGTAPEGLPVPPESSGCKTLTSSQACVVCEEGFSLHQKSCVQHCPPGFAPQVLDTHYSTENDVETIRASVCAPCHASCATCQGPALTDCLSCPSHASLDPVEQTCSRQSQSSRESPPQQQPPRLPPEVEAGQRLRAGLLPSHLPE
As to the kind of experiment: fluorogenic AMC peptide cleavage assay, soluble furin in conditioned HEK-293T medium without further purification. The class given is biochemical.
The term IC50 denotes the concentration needed to halve the response being measured. Higher therefore signals lower potency. As to `CN(C)c1ccc(C=C2SC(N(CCC(=O)O)c3ccc(Cl)cc3)=NC2=O)cc1` [P7, 3-((4-Chlorophenyl)(5-(4-(dimethylamino)benzylidene)-4-oxo-4,5-dihydrothiazol-2-yl)amino)propanoic acid], 62 µM corresponded to half-maximal inhibition (IC50). That is a double-digit micromolar value.

`Cc1ccc(N(CCC(=O)O)C2=NC(=O)C(=Cc3cccs3)S2)cc1Cl` [P16, 3-((3-Chloro-4-methylphenyl)(4-oxo-5-(thiophen-2-ylmethylene)-4,5-dihydrothiazol-2-yl)amino)propanoic acid]: it took 79 µM to reach half-maximal inhibition (IC50).

Regarding `Cc1ccc(N(CCC(=O)O)C2=NC(=O)C(=Cc3ccc(Br)s3)S2)cc1Cl` [P3, 3-((5-((5-Bromothiophen-2-yl)methylene)-4-oxo-4,5-dihydrothiazol-2-yl)(3-chloro-4-methylphenyl)amino)propanoic acid], half-maximal inhibition (IC50) was put at 35 µM. This IC50 lies about 2.3-fold lower than the previous one.

The target of a further test is T1, Furin. As to the kind of experiment: fluorogenic AMC peptide cleavage assay, […] dose response, not sigmoidal. The class given is cell-based.
For the compound `O=C(O)CCN(c1ccc(Cl)cc1)c1nc2c(s1)C(=O)c1ccccc1C2=O` [P9, 3-((4-Chlorophenyl)(4,9-dioxo-4,9-dihydronaphtho[2,3-d]thiazol-2-yl)amino)propanoic acid], the “fluorogenic AMC peptide cleavage assay, 2.5-100 μg/mL dose response, not sigmoid” value is “P3, P5, P7, P9, P13, and P16—were confirmed as novel Furin inhibitors, showing typical dose-dependent activity”.

As for `Cc1ccc(Cl)cc1N(CCC(=O)O)c1nc2c(s1)C(=O)c1ccccc1C2=O` [P5, 3-((5-Chloro-2-methylphenyl)(4,9-dioxo-4,9-dihydronaphtho[2,3-d]thiazol-2-yl)amino)propanoic acid], the “fluorogenic AMC peptide cleavage assay, 2.5-100 μg/mL dose response, not sigmoid” value was “P3, P5, P7, P9, P13, and P16—were confirmed as novel Furin inhibitors, showing typical dose-dependent activity”.

For `CCOC(=O)C=C(C)n1c2c(=O)c3ccccc3c(=O)c=2oc2ccc([N+](=O)[O-])cc21` [P13, Ethyl 3-(2-nitro-6,11-dioxo-6,11-dihydro-12H-benzo[b]phenoxazin-12-yl)but-2-enoate], the “fluorogenic AMC peptide cleavage assay, 2.5-100 μg/mL dose response, not sigmoid” value is “P3, P5, P7, P9, P13, and P16—were confirmed as novel Furin inhibitors, showing typical dose-dependent activity”.
